Measured values taken from patent US11738095B2, “Cyanine-containing compounds for cancer imaging and treatment” (Emory University, priority 2007, dated 2023).
“Also recorded” adds a separate entry of the source.

Assays:
[1] = system: ARCaPM, LNCaP, ARCaPE, C4-2, PC-3; assay: uptake of IR783 in cell lines: prostate; assay type: cell-based, human
Excerpt: (§1) The uptake of IR783 was studied and confirmed in a variety of human cell lines as shown below: […]

[2] = system: ARCaPM and PC3 tumors; assay: IR783 imaging of pre-established tumors in live mice, 5 nmol tail vein (FIG. 18); assay type: in vivo, mouse
Excerpt: Intratibial ARCaPM tumors were also established in live mice prior to administration of IR783. 5 nmol of IR783 was given through the tail vein and imaged using a Kodak multimodal imaging system.
Subcutaneous ARCaPM and PC3 (four tumors with different sizes) tumors were established in live mice prior to the administration of IR-783. 5 nmol of IR783 were given to mice through tail vein and imaged using Kodak multimodal-imaging system.

[3] = system: SN12C, ACHN; assay: uptake of IR783 in cell lines: renal; assay type: cell-based, human
Excerpt: as §1

[4] = system: P69; assay: uptake of IR783 in cell lines: human prostate epithelia; assay type: cell-based
Excerpt: as §1

[5] = system: C4-2; assay: effect of MHI-25 on C4-2 cells in culture (FIG. 9 top); assay type: cell-based, human; conditions: for cell death in culture: 24 hrs
Excerpt: To confirm the ability of other compounds to exert cytotoxicity against the growth of human tumors in vitro and in vivo, the effect of MHI-25 on the growth of C4-2 tumors in vitro (FIG. 9 top panel) and in mice (FIG. 9 bottom panel) was studied.

[6] = system: ARCaPM prostate cancer cells and P69 normal prostate epithelial cells; assay: confocal fluorescence imaging of IR783 uptake, cancer versus normal cells (FIG. 14); assay type: cell-based, human
Protocol: After being washed in PBS to remove free dyes, the cells were subject to confocal fluorescence imaging. DAPI, added together with IR783, was used as a positive control for the staining of the cell nucleus. P69, representing normal human prostate epithelial cells, was stained in parallel. Images were acquired by Zeiss LSM 510 META confocal microscopy. […] 100 μM BSP was used to pre-incubate with ARCaPM, before 50 μM IR783 was added.

[7] = system: RAW; assay: uptake of IR783 in cell lines: mouse macrophages; assay type: cell-based
Excerpt: as §1

[8] = system: HaCaT; assay: uptake of IR783 in cell lines: skin; assay type: cell-based, human
Excerpt: as §1

[9] = system: K562; assay: uptake of IR783 in cell lines: leukemia; assay type: cell-based, human
Excerpt: as §1

[10] = system: RT-4, T24, 253J, TCC; assay: uptake of IR783 in cell lines: bladder; assay type: cell-based, human
Excerpt: as §1

[11] = system: MCF-7; assay: uptake of IR783 in cell lines: breast; assay type: cell-based, human
Excerpt: as §1

[12] = system: BMC; assay: uptake of IR783 in cell lines: bone marrow stroma; assay type: cell-based, human
Excerpt: as §1

[13] = system: subcutaneous ARCaPM tumor, intratibial C4-2 tumor; assay: IR783 imaging of human prostate cancer xenografts in nude mice (FIG. 15); assay type: in vivo, mouse
Protocol: The mice were injected i.p with IR783 at 0.2 μg/kg. Imaging was performed 24 hours later with the Kodak multimodal-imaging system. Histopathological analysis (H/E) confirmed the presence of tumors. […] Histopathology confirmed the necrotic status of the tumors.

[14] = system: C4-2 tumors; assay: effect of MHI-25 on pre-established C4-2 tumors in mice (FIG. 9 bottom); assay type: in vivo, mouse; conditions: 100 nmols, Day 5 after administration
[15] = system: NPF; assay: uptake of IR783 in cell lines: prostate fibroblasts; assay type: cell-based, human
Excerpt: as §1

[16] = system: HEK293; assay: uptake of IR783 in cell lines: human embryonic kidney epithelial normal cells; assay type: cell-based
Excerpt: as §1

[17] = system: VEC; assay: uptake of IR783 in cell lines: vascular endothelia; assay type: cell-based, human
Excerpt: as §1

[18] = system: HeLa; assay: uptake of IR783 in cell lines: cervical; assay type: cell-based, human
Excerpt: as §1

[19] = system: spontaneous prostate tumor in a TRAMP mouse; assay: imaging of spontaneous TRAMP prostate tumor, fresh and after fixation (FIG. 16B, C); assay type: in vivo
Protocol: NIR imaging studies were performed to assess pharmacokinetics of the IR783 in vivo. […] This mouse was injected i.p with 0.2 μg/kg IR783 at 0 hrs. […] The dye retention in formalin fixed tissues can be as long as several weeks (data not shown).

[20] = system: human prostate cancer cells PC3 and ARCaPM in whole blood; assay: NIR detection of cancer cells spiked into human blood with IR783 (FIG. 17); assay type: cell-based
Protocol: IR783 can be used to detect and enrich disseminating cancer cells in the blood (FIG. 17). […] 5×10^3 human prostate cancer cells PC3 and ARCaPM were used to spike a 0.5 ml heparinized whole blood from a healthy donor. After incubation at 37° C. for 30 minutes, a gradient centrifugation (Histopaque-1077, Sigma) was applied to remove red blood cells. The remaining cells were washed 5 times in PBS, cells in 50 μl of the 250 μl total volume were smeared on a glass slide for NIR fluorescence detection. […] This method can detect as few as 10 human prostate cancer cells/ml of human blood, a concentration close to that of the estimated numbers of CTC as reported by previous investigators.

[21] = system: PDAC-2.3, PDAC-3.3, BTC-3, BTC-5; assay: uptake of IR783 in cell lines: pancreatic; assay type: cell-based, human
Excerpt: as §1

[22] = system: HepG2; assay: uptake of IR783 in cell lines: liver; assay type: cell-based, human
Excerpt: as §1

[23] = system: RCC; assay: uptake of IR783 in cell lines: kidney; assay type: cell-based, human
Excerpt: as §1

[24] = system: orthotopic prostate ARCaPM tumor; assay: NIR imaging to assess pharmacokinetics of IR783 in vivo (FIG. 16A, 19); set-up: species or system mouse

`CC1(C)C(=CC=C2CCCC(C=CC3=[N+](CCCCS(=O)(=O)[O-])c4ccccc4C3(C)C)=C2Cl)N(CCCCS(=O)(=O)[O-])c2ccccc21.[Na+]` [IR783] was tested, and the Uptake [1] was “Strong”, the tumor images ([2]; intratibial ARCaPM tumors, data not shown) was “Clear tumor images were detected” and the tumor images ([2]; subcutaneous ARCaPM and PC3 tumors) was “clear tumor images can be detected”. The Uptake [3] was “Strong”, the Uptake [4] was “Very low” and the “cell death in culture” value ([5]; 10 uM) was “did not induce cell death”. For the same molecule, the “cell death in culture” value ([5]; 100 uM) was “induced a significant cell death”, the apoptosis ([5]; 100 μM, exposure 24 hrs) was “clearly induced apoptosis” and the “uptake by cancer cells at 0° C.” value ([6]; 0° C., data not shown) was “no uptake”. For the same molecule, the “uptake, ARCaPM compared with P69” value ([6]; 50 μM, 37° C., 30 min) was “only in the cancer cells”, the “effect of BSP on uptake by ARCaPM cells” value ([6]; 100 μM BSP pre-incubation, 50 μM IR783) was “inhibited by BSP; also recorded: completely abolished” and the “time dependence of uptake” value ([6]; ARCaPM, FIG. 14) was “time-dependent fashion”. The “dose dependence of uptake” value ([6]; ARCaPM, data not shown) was “dose-dependent fashion”, the Uptake [7] was “Very low” and the Uptake [8] was “Very low”. For the same molecule, the Uptake [9] was “Strong”, the Uptake [10] was “Strong” and the Uptake [11] was “Strong”. For the same molecule, the Uptake [12] was “Very low”, the “dye in normal organs removed from hosts” value ([13]; fluorescence imaging of all organs, data not shown) was “lack of uptake of the dye in normal organs” and the “dye in metabolically active C4-2 tumors in mouse tibia” value ([13]; mouse, in vivo) was “retained the dye”. For the same molecule, the “dye retention in necrotic tumors on the contralateral side” value ([13]; mouse, in vivo) was “did not”, the “smallest tumor size detected” value ([13]; orthotopic or bone metastatic lesions, data not shown) was about 2 mm^3 and the “uptake by xenografts and metastatic bone lesions” value ([13]; subcutaneous and intra-tibial sites of nude mice, 0.2 μg/kg i.p, 24 hours) was “preferentially taken up”. The “effect on pre-established tumors” value [14] was “induced marked cell death, with tumors almost eliminated at Day 5”, the Uptake [15] was “Very low” and the Uptake [16] was “Low”. For the same molecule, the Uptake [17] was “Very low”, the Uptake [18] was “Strong” and the “imaging of spontaneous prostate tumor” value ([19]; 24 hours after administration) was “could be imaged”. The “dye retention in formalin fixed tissues” value ([19]; data not shown) was “several weeks”, the “tolerance of dye accumulation in tumors to fixation” value ([19]; mouse, in vivo) was “can tolerate fixation with both paraformaldehyde and glutaraldehyde” and the “lowest number of cancer cells detected” value [20] was 10 human prostate cancer cells/ml of human blood. The “fluorescence of normal periphery mononucleated cells” value ([20]; 37° C., 30 minutes) was “very low to background NIR fluorescence”, the “fluorescence of cancer cells” value ([20]; 37° C., 30 minutes, whole blood of a healthy donor) was “strong fluorescence signals in the cytoplasm” and the Uptake [21] was “Strong”. The Uptake [22] was “Strong”, the Uptake [23] was “Strong” and the non-specific imaging ([24]; 0.2 μg/kg i.p) was “non-specific imaging can be seen in the first 24 hrs, predominantly in the liver”. For the same molecule, the retention in tumors ([24]; 0.2 μg/kg i.p, 3.4 cm^3 orthotopic ARCaPM tumor) was “more than 4 days”, the initial distribution ([24]; 0.2 μg/kg i.v or i.p) was “initially accumulated in liver, lung and spleen” and the “time at which dye appeared in tumor” value ([24]; 0.2 μg/kg i.v or i.p) was 24 h. For the same molecule, the “time after which tumors and metastases can be readily identified” value ([24]; ARCaP orthotopic tumors, FIG. 19) was 24 to 48 h, the “signal in mice without tumors” value ([24]; data not shown) was “background activity” and the “accumulation in gall bladder or urinary bladder” value ([24]; mouse, in vivo) was “not detected”. The “time of accumulation in tumor and metastases” value ([24]; orthotopic xenograft ARCaPm tumor, FIG. 16 legend) was 24 to 96 h.
